The subject of test [1] is PqsR (PqsR-controlled pqsA promoter, PAO1-L mCTX::PpqsA-lux). Kind of test: Bioluminescent reporter assay, PAO1-L mCTX::PpqsA-lux. The class given is cell-based, Pseudomonas aeruginosa. The settings on record: for activity relative to 6f / to each other, in words: PAO1-L reporter (6i, 6j, 6s: both reporter strains); for IC50: Pseudomonas aeruginosa; for reduction in potency compared with 6f: PAO1-L; for pqs inhibitory activity in the PA bioluminescent reporter assay, in words: reporter strains. As to the method:
(§1) An extensive SAR was performed on 6a to investigate the role of substitutions around various positions of the benzimidazole ring (groups R1–R3) as well as the aromatic tail (groups R4–R5) to fine-tune the potency of this series (6a–u) (Table 2). The activity of these analogues to inhibit the pqs QS system was evaluated in the PAO1-L and PA14 strains (that belong to the two major P. aeruginosa genomic lineages), both harboring a chromosomally integrated mCTX::PpqsA-lux transcriptional fusion to report for the activity of pqs system. Successful pharmacological blocking of AQ signal reception at the level of PqsR leads to a reduced transcription of the pqsA-lux genes and ultimately reduction in the luminescence readout.
(§2) Strains PA14 mCTX::PpqsA-lux and PAO1-L mCTX::PpqsA-lux were used to detect PqsR-controlled activation of the pqsA promoter, as previously described,[45] and the assay was performed according to a published method.[46] For initial screening, the compounds were tested at a concentration of 10 μM, which was prepared from a 10 mM stock, in DMSO.
(In general: Reporter assays use an easily measured gene product as a stand-in for the process of interest.)

Test [2] concerns PqsR (PqsR-controlled pqsA promoter, PA14 mCTX::PpqsA-lux). Kind of test: Bioluminescent reporter assay, PA14 mCTX::PpqsA-lux. The format is cell-based. Particulars: Pseudomonas aeruginosa. As to the method: as §1, §2
The test system of test [3] is pyocyanin production in P. aeruginosa. The test is described as follows: Pyocyanin quantification. The format is cell-based, Pseudomonas aeruginosa. The settings on record: PAO1-L; concentration three times the IC50; relative to DMSO. Here is the method: This assay was extended further to investigate the effect of 6f on pyocyanin production in different P. aeruginosa at 6f concentration of 200 nM (Figure 5b).
The experiment was performed following a published protocol with minor modifications. Strains were cultured into 5 mL of fresh medium overnight. […] Cells were centrifuged at 10 000 RCF for 10 min (Allegra 64R centrifuge, Beckman Coulter, High Wycombe, UK), and the supernatant was transferred to 15 mL falcon tubes with a HSW 10 mL Soft-Ject Syringe and a […] Sartorius syringe-driven filter (Fisher Brand, Loughborough, UK). Pyocyanin pigment was extracted into chloroform by mixing 7.5 mL of supernatant with 4.5 mL of chloroform. Pyocyanin was further extracted into 1.5 mL of 0.2 M HCL, which gave a pink/red solution, and the absorbance was measured at 520 nm.[47]

The mark [4] stands for this setting: PAO1, read-out: IC50 (μM) PAO1-L mCTX::PpqsA-lux.
[5] abbreviates: PA14, read-out: IC50 (μM) PA14 mCTX::PpqsA-lux.

Where two headings read alike, the source gives them in different places.

For `CC(C)n1c(NC[C@@H](O)COc2ccc(CC#N)cc2)nc2ccc(Cl)cc21` [Compound 6w], the “activity relative to 6f / to each other, in words” value in test [1] is listed as “comparable activity to the racemic compound 6f”.

Regarding `Cn1c(NCC(O)COc2ccc(CC#N)cc2)nc2ccc(Cl)cc21` (stereo not drawn) [Compound 6a, 2-(4-(3-((6-Chloro-1-methyl-1H-benzo[d]imidazol-2-yl)amino)-2-hydroxypropoxy)phenyl) Acetonitrile], the “enhancement of activity compared to 1” value in test [1] (PAO1-L laboratory strain) is listed as 15 fold. For the same molecule, the IC50 in test [1] (PAO1, read-out: IC50 (μM) PAO1-L PpqsA-lux) turned out to be 0.21 ± 0.04 µM; in test [2] (PA14, read-out: IC50 (μM) PA14 PpqsA-lux), 0.2 ± 0.02 µM.

For the molecule `N#CCc1ccc(OCC(O)CNc2nc3ccc(Cl)cc3n2C2COC2)cc1` (stereo not drawn) [Compound 6s, 2-(4-(3-((6-Chloro-1-(oxetan-3-yl)-1H-benzo[d]imidazol-2-yl)amino)-2-hydroxypropoxy)phenyl) Acetonitrile], the “activity relative to 6f / to each other, in words” value in test [1] is “comparable potencies to 6f”. Besides, the IC50 was 0.24 ± 0.02 µM in test [1] (setting [4]) and 0.21 ± 0.03 µM in test [2] (setting [5]).

In the case of `N#CCc1ccc(OCC(O)CNc2nc3ccc(Cl)cc3n2CCO)cc1` (stereo not drawn) [Compound 6u, 2-(4-(3-((6-Chloro-1-(2-hydroxyethyl)-1H-benzo[d]imidazol-2-yl)amino)-2-hydroxypropoxy)phenyl) Acetonitrile], the “reduction in potency compared with 6f” value in test [1] stood at 2 fold. Moreover, the IC50 came to 0.18 ± 0.05 µM in test [1] (setting [4]) and 0.1 ± 0.02 µM in test [2] (setting [5]).

With `N#CCc1ccc(OCC(O)CNc2nc3ccc(Cl)cc3n2C2CCC2)cc1` (stereo not drawn) [Compound 6j, 2-(4-(3-((6-Chloro-1-cyclobutyl-1H-benzo[d]imidazol-2-yl)amino)-2-hydroxypropoxy)phenyl) Acetonitrile], in test [1], the “activity relative to 6f / to each other, in words” value is recorded as “comparable potencies to 6f”. In addition, the figures for the IC50 in test [1] (setting [4]) and in test [2] (setting [5]) were 0.16 ± 0.01 µM and 0.31 ± 0.05 µM, respectively.

As to `CC(C)(C)n1c(NCC(O)COc2ccc(CC#N)cc2)nc2ccc(Cl)cc21` (stereo not drawn) [Compound 6g, 2-(4-(3-((1-(tert-Butyl)-6-chloro-1H-benzo[d]imidazol-2-yl)amino)-2-hydroxypropoxy)phenyl) Acetonitrile], the figures for the IC50 in test [1] (setting [4]) and in test [2] (setting [5]) were 0.22 ± 0.01 µM and 0.23 ± 0.01 µM, respectively. For the same molecule, the “inhibition of pyocyanin production” value in test [3] is reported as roughly 80%.

As to `N#CCc1ccc(OCC(O)CNc2nc3ccc(Cl)cc3o2)cc1` (stereo not drawn) [Compound 7], the “pqs inhibitory activity in the PA bioluminescent reporter assay, in words” value (from here on “pqs inhibitory activity”) in test [1] is listed as “abolished pqs inhibitory activity”.

`CC(C)n1c(NC[C@H](O)COc2ccc(CC#N)cc2)nc2ccc(Cl)cc21` [Compound 6v]: the “activity relative to 6f / to each other, in words” value in test [1] was “comparable activity to the racemic compound 6f”.

In the case of `N#CCc1ccc(OCC(O)CNc2nc3ccc(Cl)cc3s2)cc1` (stereo not drawn) [Compound 8], in test [1], the “pqs inhibitory activity” value is reported as “abolished pqs inhibitory activity”.

In the case of `CC(C)n1c(NCC(O)COc2ccc(CC#N)c(F)c2)nc2ccc(Cl)cc21` (stereo not drawn) [Compound 6o, 2-(4-(3-((6-Chloro-1-isopropyl-1H-benzo[d]imidazol-2-yl)amino)-2-hydroxypropoxy)-2-fluorophenyl) Acetonitrile], the figures for the IC50 in test [1] (setting [4]) and in test [2] (setting [5]) were 0.06 ± 0.03 µM and 0.09 ± 0.01 µM, respectively.

As to `N#CCc1ccc(OCC(O)CNc2nc3ccc(Cl)cc3n2C2CCCCC2)cc1` (stereo not drawn) [Compound 6l, 2-(4-(3-((6-Chloro-1-cyclohexyl-1H-benzo[d]imidazol-2-yl)amino)-2-hydroxypropoxy)phenyl) Acetonitrile], the “reduction in potency compared with 6f” value in test [1] is listed as 25 fold. Moreover, the IC50 in test [1] (setting [4]) worked out at 1.7 ± 0.5 µM; in test [2] (setting [5]), 1.4 ± 0.1 µM.

Turning to “2-(4-(3-((5-Chloro-1-methyl-1H-benzo[d]imidazol-2-yl)amino)-2-hydroxypropoxy)phenyl) Acetonitrile [Compound 6b]”, the “pqs inhibitory activity” value in test [1] is “abolished the activity”.

Consider `Cn1c(SCC(O)COc2ccc(CC#N)cc2)nc2ccc(Cl)cc21` (stereo not drawn) [Compound 11], for which the “pqs inhibitory activity” value in test [1] was “abolished pqs inhibitory activity”.

`N#CCc1ccc(OCC(O)CNc2nc3ccc(Cl)cc3n2C2CCCC2)cc1` (stereo not drawn) [Compound 6k, 2-(4-(3-((6-Chloro-1-cyclopentyl-1H-benzo[d]imidazol-2-yl)amino)-2-hydroxypropoxy)phenyl) Acetonitrile]: the “reduction in potency compared with 6f” value in test [1] is given as roughly 6 fold. Moreover, the results for the IC50 in test [1] (setting [4]) and in test [2] (setting [5]) were 0.44 ± 0.1 µM and 0.47 ± 0.1 µM, respectively.

`COCCn1c(NCC(O)COc2ccc(CC#N)cc2)nc2ccc(Cl)cc21` (stereo not drawn) [Compound 6t, 2-(4-(3-((6-Chloro-1-(2-methoxyethyl)-1H-benzo[d]imidazol-2-yl)amino)-2-hydroxypropoxy)phenyl) Acetonitrile]: the “reduction in potency compared with 6f” value in test [1] turned out to be 2 fold. In addition, the figures for the IC50 in test [1] (setting [4]) and in test [2] (setting [5]) were 0.18 ± 0.04 µM and 0.2 ± 0.05 µM, respectively.

Take `CN1CCC(n2c(NCC(O)COc3ccc(CC#N)cc3)nc3ccc(Cl)cc32)CC1` (stereo not drawn) [Compound 6r, 2-(4-(3-((6-Chloro-1-(1-methylpiperidin-4-yl)-1H-benzo[d]imidazol-2-yl)amino)-2-hydroxypropoxy)phenyl) Acetonitrile]: the “pqs inhibitory activity” value in test [1] is “not active”.

On to `CC(C)(C)Cn1c(NCC(O)COc2ccc(CC#N)cc2)nc2ccc(Cl)cc21` (stereo not drawn) [Compound 6h, 2-(4-(3-((6-Chloro-1-neopentyl-1H-benzo[d]imidazol-2-yl)amino)-2-hydroxypropoxy)phenyl) Acetonitrile], for which, in test [1], the “reduction in potency compared with 6f” value is given as roughly 6 fold. The IC50 in test [1] (setting [4]) stood at 0.38 µM; in test [2] (setting [5]) it was 0.25 µM.

Regarding `N#CCc1ccc(OCC(O)CNc2nc3ccc(Cl)cc3n2CCOCc2ccccc2)cc1` (stereo not drawn) [Compound 6m, 2-(4-(3-((1-(2-(Benzyloxy)ethyl)-6-chloro-1H-benzo[d]imidazol-2-yl)amino)-2-hydroxypropoxy)phenyl) Acetonitrile], the “reduction in potency compared with 6f” value in test [1] was determined as 14 fold. Further, the IC50 in test [1] (setting [4]) amounted to 1.06 µM.

As for `CC(C)n1c(NCC(O)COc2ccc(CC#N)cc2)nc2ccccc21` (stereo not drawn) [Compound 6p, 2-(4-(2-Hydroxy-3-((1-isopropyl-1H-benzo[d]imidazol-2-yl)amino)propoxy)phenyl) Acetonitrile], the IC50 in test [1] (setting [4]) came out at 0.77 µM; in test [2] (setting [5]), 1.03 µM.

In the case of `N#CCc1ccc(OCC(O)CNc2nc3ccc(Cl)cc3n2C2CC2)cc1` (stereo not drawn) [Compound 6i, 2-(4-(3-((6-Chloro-1-cyclopropyl-1H-benzo[d]imidazol-2-yl)amino)-2-hydroxypropoxy)phenyl) Acetonitrile], the “activity relative to 6f / to each other, in words” value in test [1] is “comparable potencies to 6f”. Also, the IC50 is 0.07 ± 0.03 µM in test [1] (setting [4]) and 0.09 ± 0.02 µM in test [2] (setting [5]).

Turning to “2-(4-(3-((5,6-Dichloro-1-methyl-1H-benzo[d]imidazol-2-yl) amino)-2-hydroxypropoxy) phenyl) Acetonitrile [Compound 6c]”, the “pqs inhibitory activity” value in test [1] is “abolished the activity”.

As for `CN(C)CCn1c(NCC(O)COc2ccc(CC#N)cc2)nc2ccc(Cl)cc21` (stereo not drawn) [Compound 6q, 2-(4-(3-((6-Chloro-1-(2-(dimethylamino)ethyl)-1H-benzo[d]imidazol-2-yl)amino)-2-hydroxypropoxy)phenyl) Acetonitrile], in test [1], the “pqs inhibitory activity” value is given as “obliterated the biological activity”.

The IC50 is the concentration at which inhibition is half-maximal.

The values are drawn from publication PMC10823468, “Design, Synthesis, and Evaluation of New 1H-Benzo[d]imidazole Based PqsR Inhibitors as Adjuvant Therapy for Pseudomonas aeruginosa Infections” (Journal of Medicinal Chemistry, 2024).
